Data from ChEMBL document CHEMBL5376026, “Design, synthesis, and antiproliferative evaluation of novel dehydroabietic acid-1,2,3-triazole-oxazolidinone hybrids” (RSC Med Chem, 2024).
Structures can show the parent of a compound that is named as a salt.

Assays:
[1] = Cytotoxicity against human LO2 cells assessed as reduction in cell viability incubated for 48 hrs by MTT assay; format: toxicity, cell-based, L02
MGC-803 = experiment: Anticancer activity against human MGC-803 cells assessed as inhibition of cell growth incubated for 48 hrs by MTT assay; format: functional, cell-based; conditions: MGC-803, 48 h
T-24 = experiment: Anticancer activity against human T-24 cells assessed as inhibition of cell growth incubated for 48 hrs by MTT assay; format: functional, cell-based; conditions: T-24, 48 h
HeLa = experiment: Anticancer activity against human HeLa cells assessed as inhibition of cell growth incubated for 48 hrs by MTT assay; format: functional, cell-based
HepG2 = experiment: Anticancer activity against human HepG2 cells assessed as inhibition of cell growth incubated for 48 hrs by MTT assay; format: functional, cell-based; conditions: HepG2, 48 h

Structure (SMILES): COc1cccc2c1C(=O)c1c(O)c3c(c(O)c1C2=O)C[C@@](O)(C(=O)CO)C[C@@H]3O[C@H]1C[C@H](N)[C@H](O)[C@H](C)O1 [DOXORUBICIN HYDROCHLORIDE]
- IC50 at 48 h [1]: 23.5 µM
- IC50 (MGC-803): 2.4 µM
- IC50 (T-24): 1.76 µM
- IC50 (HeLa): 0.78 µM
- IC50 (HepG2): 3.43 µM

Structure (SMILES): CC(C)c1ccc2c(c1)CC[C@H]1[C@](C)(C(=O)OCc3cn(CC4CN(c5ccc(Cl)cc5)C(=O)O4)nn3)CCC[C@]21C (stereo not given in full)
- IC50 at 48 h [1]: 24.3 µM
- IC50 (MGC-803): 16.3 µM
- IC50 (T-24): 36.4 µM
- IC50 (HeLa): 24.7 µM
- IC50 (HepG2): 18.1 µM

Structure (SMILES): CC(C)c1ccc2c(c1)CC[C@H]1[C@](C)(C(=O)OCc3cn(CC4CN(c5ccc(F)cc5)C(=O)O4)nn3)CCC[C@]21C (stereo not given in full)
- IC50 at 48 h [1]: 41.6 µM
- IC50 (MGC-803): 12.7 µM
- IC50 (T-24): 55.1 µM
- IC50 (HeLa): 46.7 µM
- IC50 (HepG2): 45.8 µM

Structure (SMILES): CC(C)c1ccc2c(c1)CC[C@H]1[C@](C)(C(=O)OCc3cn(CC4CN(c5ccc(N6CCOCC6)cc5)C(=O)O4)nn3)CCC[C@]21C (stereo not given in full)
- IC50 at 48 h [1]: 21.4 µM
- IC50 (MGC-803): 22.4 µM
- IC50 (T-24): 70.9 µM
- IC50 (HeLa): 21.7 µM
- IC50 (HepG2): 23.9 µM

Structure (SMILES): CC(C)c1ccc2c(c1)CC[C@H]1[C@](C)(C(=O)OCc3cn(CC4CN(c5cccc(Cl)c5)C(=O)O4)nn3)CCC[C@]21C (stereo not given in full)
- IC50 at 48 h [1]: 23.9 µM
- IC50 (MGC-803): 17.6 µM
- IC50 (T-24): > 100 µM
- IC50 (HeLa): 6.94 µM
- IC50 (HepG2): 47.9 µM

Structure (SMILES): CC(C)c1ccc2c(c1)CC[C@H]1[C@](C)(C(=O)OCc3cn(CC4CN(c5ccc(F)c(F)c5)C(=O)O4)nn3)CCC[C@]21C (stereo not given in full)
- IC50 at 48 h [1]: 23.4 µM
- IC50 (MGC-803): 17.4 µM
- IC50 (T-24): 26.5 µM
- IC50 (HeLa): 9.35 µM
- IC50 (HepG2): 32 µM

Structure (SMILES): CC(C)c1ccc2c(c1)CC[C@H]1[C@](C)(C(=O)OCc3cn(CC4CN(c5ccc(N6CCOCC6)c(F)c5)C(=O)O4)nn3)CCC[C@]21C (stereo not given in full)
- IC50 at 48 h [1]: > 100 µM
- IC50 (MGC-803): 26.1 µM
- IC50 (T-24): 63.6 µM
- IC50 (HeLa): 36.6 µM
- IC50 (HepG2): 28.7 µM

Structure (SMILES): CC(C)c1ccc2c(c1)CC[C@H]1[C@](C)(C(=O)OCc3cn(CC4CN(c5ccccc5Cl)C(=O)O4)nn3)CCC[C@]21C (stereo not given in full)
- IC50 at 48 h [1]: 21.4 µM
- IC50 (MGC-803): 11 µM
- IC50 (T-24): 70.4 µM
- IC50 (HeLa): 14 µM
- IC50 (HepG2): 13.6 µM

Structure (SMILES): CC(C)c1ccc2c(c1)CC[C@H]1[C@](C)(C(=O)OCc3cn(CC4CN(c5ccccc5)C(=O)O4)nn3)CCC[C@]21C (stereo not given in full)
- IC50 at 48 h [1]: 20.8 µM
- IC50 (MGC-803): 12.8 µM
- IC50 (T-24): > 100 µM
- IC50 (HeLa): 36.1 µM
- IC50 (HepG2): 18 µM

Structure (SMILES): Cc1ccc(N2CC(Cn3cc(COC(=O)[C@]4(C)CCC[C@]5(C)c6ccc(C(C)C)cc6CC[C@@H]45)nn3)OC2=O)cc1 (stereo not given in full)
- IC50 at 48 h [1]: 71.7 µM
- IC50 (MGC-803): 11.1 µM
- IC50 (T-24): > 100 µM
- IC50 (HeLa): 2.63 µM
- IC50 (HepG2): 26.8 µM

Structure (SMILES): CC(C)c1ccc2c(c1)CC[C@H]1[C@](C)(C(=O)O)CCC[C@]21C [DEHYDROABIETIC ACID]
- IC50 at 48 h [1]: > 100 µM
- IC50 (MGC-803): > 100 µM
- IC50 (T-24): > 100 µM
- IC50 (HeLa): 30.4 µM
- IC50 (HepG2): 80.4 µM

Structure (SMILES): COc1ccc(N2CC(Cn3cc(COC(=O)[C@]4(C)CCC[C@]5(C)c6ccc(C(C)C)cc6CC[C@@H]45)nn3)OC2=O)cc1 (stereo not given in full)
- IC50 at 48 h [1]: 31.1 µM
- IC50 (MGC-803): 7.16 µM
- IC50 (T-24): 18.8 µM
- IC50 (HeLa): 7.76 µM
- IC50 (HepG2): 31 µM

Structure (SMILES): CC(C)c1ccc2c(c1)CC[C@H]1[C@](C)(C(=O)OCc3cn(CC4CN(c5cccc([N+](=O)[O-])c5)C(=O)O4)nn3)CCC[C@]21C (stereo not given in full)
- IC50 at 48 h [1]: 25.9 µM
- IC50 (MGC-803): 21.2 µM
- IC50 (T-24): > 100 µM
- IC50 (HeLa): 30.9 µM
- IC50 (HepG2): 13 µM

Structure (SMILES): COc1cc(N2CC(Cn3cc(COC(=O)[C@]4(C)CCC[C@]5(C)c6ccc(C(C)C)cc6CC[C@@H]45)nn3)OC2=O)cc(OC)c1OC (stereo not given in full)
- IC50 at 48 h [1]: 22.7 µM
- IC50 (MGC-803): 24.8 µM
- IC50 (T-24): 12.2 µM
- IC50 (HeLa): 16.6 µM
- IC50 (HepG2): 32.3 µM

Structure (SMILES): Cc1cccc(N2CC(Cn3cc(COC(=O)[C@]4(C)CCC[C@]5(C)c6ccc(C(C)C)cc6CC[C@@H]45)nn3)OC2=O)c1 (stereo not given in full)
- IC50 at 48 h [1]: 51.5 µM
- IC50 (MGC-803): 24.7 µM
- IC50 (T-24): 44.5 µM
- IC50 (HeLa): 59.5 µM
- IC50 (HepG2): 23.5 µM

Structure (SMILES): Cc1ccccc1N1CC(Cn2cc(COC(=O)[C@]3(C)CCC[C@]4(C)c5ccc(C(C)C)cc5CC[C@@H]34)nn2)OC1=O (stereo not given in full)
- IC50 at 48 h [1]: 67.3 µM
- IC50 (MGC-803): 12.6 µM
- IC50 (T-24): 17.1 µM
- IC50 (HeLa): 6.44 µM
- IC50 (HepG2): 15.6 µM

Structure (SMILES): CC(C)c1ccc2c(c1)CC[C@H]1[C@](C)(C(=O)OCc3cn(CC4CN(c5ccccc5[N+](=O)[O-])C(=O)O4)nn3)CCC[C@]21C (stereo not given in full)
- IC50 at 48 h [1]: 76.4 µM
- IC50 (MGC-803): 24.5 µM
- IC50 (T-24): 27.5 µM
- IC50 (HeLa): 15 µM
- IC50 (HepG2): 77.1 µM

Structure (SMILES): CC(C)c1ccc2c(c1)CC[C@H]1[C@](C)(C(=O)OCc3cn(CC4CN(c5cccc(Br)c5)C(=O)O4)nn3)CCC[C@]21C (stereo not given in full)
- IC50 at 48 h [1]: 47.6 µM
- IC50 (MGC-803): 21.6 µM
- IC50 (T-24): 42.6 µM
- IC50 (HeLa): 20.5 µM
- IC50 (HepG2): 12.6 µM

Structure (SMILES): CC(C)c1ccc2c(c1)CC[C@H]1[C@](C)(C(=O)OCc3cn(CC4CN(c5ccccc5F)C(=O)O4)nn3)CCC[C@]21C (stereo not given in full)
- IC50 at 48 h [1]: 48.2 µM
- IC50 (MGC-803): 20.7 µM
- IC50 (T-24): > 100 µM
- IC50 (HeLa): 16.6 µM
- IC50 (HepG2): 20.2 µM

Structure (SMILES): CC(C)c1ccc2c(c1)CC[C@H]1[C@](C)(C(=O)OCc3cn(CC4CN(c5cccc(F)c5)C(=O)O4)nn3)CCC[C@]21C (stereo not given in full)
- IC50 at 48 h [1]: 29.1 µM
- IC50 (MGC-803): 25.8 µM
- IC50 (T-24): 62.1 µM
- IC50 (HeLa): 32.8 µM
- IC50 (HepG2): 24.7 µM

Structure (SMILES): CC(C)c1ccc2c(c1)CC[C@H]1[C@](C)(C(=O)OCc3cn(CC4CN(c5ccccc5Br)C(=O)O4)nn3)CCC[C@]21C (stereo not given in full)
- IC50 at 48 h [1]: 20.3 µM
- IC50 (MGC-803): 6.47 µM
- IC50 (T-24): 9.62 µM
- IC50 (HeLa): 30.9 µM
- IC50 (HepG2): 67.8 µM
